{"source": "patent EP2411506B1", "about": "“TUMOR SUPPRESSION USING HUMAN PLACENTA-DERIVED INTERMEDIATE NATURAL KILLER CELLS AND IMMUNOMODULATORY COMPOUNDS” (Celularity, Inc., priority 2009, dated 2010)", "key": {"cultured PINK cells": {"system": "cultured PINK cells", "test": "qRT-PCR gene expression analysis of lenalidomide- and pomalidomide-treated cultured PINK cells", "format": "cell-based, human", "conditions": "for expression of GM-CSF, increase: treated PINK cells vs untreated", "text": "RNA isolation and purification.\nQuantitative real-time (qRT-PCR) analysis."}, "[1]": {"system": "day 21 cultivated placental NK cells", "test": "ELISA of perforin and granzyme B secretion from treated NK cells", "format": "cell-based, human", "conditions": "treated day 21 cultivated placental NK cells compared to controls", "experimental": "In a separate experiment, secretion of perforin and granzyme B from pomalidomide- or lenalidomide-treated day 21 cultivated placental NK cells was evaluated by ELISA."}, "placental NK cells": {"system": "placental NK cells", "test": "Luminex (Five-Plex Antibody Kit) of GM-CSF and TNF-α secretion from treated NK cells", "conditions": "treated cultured NK cells compared to controls", "quoted_text": "Secretion of GM-CSF and TNF-α was evaluated by Luminex utilizing a Five-Plex Antibody Kit."}, "NK cells": {"system": "NK cells", "test": "Flow cytometry of GZMB-positive NK cells after pomalidomide treatment", "format": "cell-based, human", "conditions": "increase vs untreated"}, "[2]": {"conditions": "treated vs untreated cultured PINK cells (Veh = 1)"}, "[3]": {"conditions": "treated vs untreated cultured PINK cells (Veh = 1.01)"}}}
{"smiles": "Nc1cccc2c1CN(C1CCC(=O)NC1=O)C2=O", "note": "(centres unmarked) [lenalidomide, 3-(4'aminoisoindoline-1'-one)-1-piperidine-2,6-dione]", "values": [{"measurement": "expression of GM-CSF, increase", "setting": "cultured PINK cells; qRT-PCR", "value": "232% ± 1.6%"}, {"measurement": "Fold change of gene expression: BAX", "setting": "cultured PINK cells; [2]", "value": 1.39}, {"measurement": "Fold change of gene expression: CCL5", "setting": "cultured PINK cells; [2]", "value": 1.24}, {"measurement": "Fold change of gene expression: CCR5", "setting": "cultured PINK cells; [2]", "value": 0.9}, {"measurement": "Fold change of gene expression: CD8A", "setting": "cultured PINK cells; [2]", "value": 1.3}, {"measurement": "Fold change of gene expression: CD68", "setting": "cultured PINK cells; [2]", "value": 4.04}, {"measurement": "Fold change of gene expression: CSF2", "setting": "cultured PINK cells; [2]", "value": 2.32}, {"measurement": "Fold change of gene expression: FAS", "setting": "cultured PINK cells; [2]", "value": 1.11}, {"measurement": "Fold change of gene expression: GUSB", "setting": "cultured PINK cells; [2]", "value": 1.13}, {"measurement": "Fold change of gene expression: IL2RA", "setting": "cultured PINK cells; [2]", "value": 1.26}, {"measurement": "Fold change of gene expression: TNFRSF18", "setting": "cultured PINK cells; [2]", "value": 0.7}, {"measurement": "increase in granzyme B secretion", "setting": "[1]", "value": 113, "unit": "%"}, {"measurement": "increase in perforin secretion", "setting": "[1]", "value": 86, "unit": "%"}, {"measurement": "increase in GM-CSF secretion", "setting": "placental NK cells", "value": 166, "unit": "%"}, {"measurement": "increase in TNF-α secretion", "setting": "placental NK cells", "value": 76, "unit": "%"}]}
{"smiles": "Nc1cccc2c1C(=O)N(C1CCC(=O)NC1=O)C2=O", "note": "(racemic) [pomalidomide, 4-amino-2-[(3RS)-2,6-dioxopiperidin-3-yl)-1H-isoindole-1,3(2H)-dione]", "values": [{"measurement": "increased granzyme B (GZMB) gene expression", "setting": "cultured PINK cells; increase vs untreated, qRT-PCR", "value": "60% ± 1.7%"}, {"measurement": "expression of GM-CSF, increase", "setting": "cultured PINK cells; qRT-PCR", "value": "396% ± 0.3%"}, {"measurement": "Fold change of gene expression: ACTB", "setting": "cultured PINK cells; [2]", "value": 0.77}, {"measurement": "Fold change of gene expression: BAX", "setting": "cultured PINK cells; [2]", "value": 2.23}, {"measurement": "Fold change of gene expression: CCL2", "setting": "cultured PINK cells; [2]", "value": 5.46}, {"measurement": "Fold change of gene expression: CCL3", "setting": "cultured PINK cells; [2]", "value": 2.2}, {"measurement": "Fold change of gene expression: CCL5", "setting": "cultured PINK cells; [2]", "value": 1.78}, {"measurement": "Fold change of gene expression: CCR5", "setting": "cultured PINK cells; [2]", "value": 0.68}, {"measurement": "Fold change of gene expression: CD8A", "setting": "cultured PINK cells; [2]", "value": 2.39}, {"measurement": "Fold change of gene expression: CD68", "setting": "cultured PINK cells; [2]", "value": 8.74}, {"measurement": "Fold change of gene expression: CD80", "setting": "cultured PINK cells; [2]", "value": 1.59}, {"measurement": "Fold change of gene expression: CSF1", "setting": "cultured PINK cells; [2]", "value": 1.41}, {"measurement": "Fold change of gene expression: CSF2", "setting": "cultured PINK cells; [2]", "value": 3.96}, {"measurement": "Fold change of gene expression: ECE1", "setting": "cultured PINK cells; [2]", "value": 1.56}, {"measurement": "Fold change of gene expression: FAS", "setting": "cultured PINK cells; [2]", "value": 1.34}, {"measurement": "Fold change of gene expression: GUSB", "setting": "cultured PINK cells; [2]", "value": 1.76}, {"measurement": "Fold change of gene expression: GZMB", "setting": "cultured PINK cells; [2]", "value": 1.59}, {"measurement": "Fold change of gene expression: IL2RA", "setting": "cultured PINK cells; [2]", "value": 1.58}, {"measurement": "Fold change of gene expression: IL8", "setting": "cultured PINK cells; [2]", "value": 1.62}, {"measurement": "Fold change of gene expression: LTA", "setting": "cultured PINK cells; [2]", "value": 2.88}, {"measurement": "Fold change of gene expression: PRF1", "setting": "cultured PINK cells; [2]", "value": 1.17}, {"measurement": "Fold change of gene expression: PTGS2", "setting": "cultured PINK cells; [2]", "value": 1.68}, {"measurement": "Fold change of gene expression: SKI", "setting": "cultured PINK cells; [2]", "value": 1.96}, {"measurement": "Fold change of gene expression: GNLY", "setting": "cultured PINK cells; [3]", "value": 1.96}, {"measurement": "Fold change of gene expression: IL1A", "setting": "cultured PINK cells; [3]", "value": 2.61}, {"measurement": "Fold change of gene expression: TBX21", "setting": "cultured PINK cells; [3]", "value": 2.05}, {"measurement": "Fold change of gene expression: IL10", "setting": "cultured PINK cells; treated vs untreated cultured PINK cells (Veh = 1.02)", "value": 1.52}, {"measurement": "increased percentage of GZMB-positive NK cells", "setting": "NK cells", "value": 25, "unit": "%"}, {"measurement": "increase in granzyme B secretion", "setting": "[1]", "value": 69, "unit": "%"}, {"measurement": "increase in perforin secretion", "setting": "[1]", "value": 121, "unit": "%"}, {"measurement": "increase in GM-CSF secretion", "setting": "placental NK cells", "value": 357, "unit": "%"}, {"measurement": "increase in TNF-α secretion", "setting": "placental NK cells", "value": 147, "unit": "%"}]}
